Read-outs that look alike come from different tables or passages of the source.
Assays:
[1] = rcm bond
[2] = from C=Cc1ccc2ccc([C@@H](C)OC(=O)[C@@H]3CCCN(C(=O)[C@H](C)NC(=O)[C@@H](NC(=O)[C@@H](/C=C/C)CC4CC4)C(C)C)N3)nc2c1; rcm bond; 21-membered ring; Hoveyda-Grubbs II (3x20 mol%); 1,2-dichloroethane; 2.44 mM; 80.0 °C
cyclophilin A = cyclophilin A (Homo sapiens, UniProt P62937); assay: Cyclophilin A TR-FRET competitive binding assay; conditions: IC50 ranges; competition with CsA-Cy5 for His-tagged CypA, two-hour incubation; read-out: TR-FRET
Method: Cyclophilin A TR-FRET Competitive Binding Assay
Inhibitor potency was measured using a competitive binding assay with a time-resolved fluorescence resonance energy transfer (TR-FRET) readout. […] An IC50 value was calculated using a four-parameter logistic fit.

[3] = tested on: HCV replicon (Replicon 1a); assay: anti-HCV activity in Huh-7 cell line harboring a HCV replicon (Replicon 1a); assay type: cell-based; conditions: for inhibition at 1 µM: Hepatitis C virus, Huh-7, 72 h, read-out: Replicon 1a % inhibition at 1 μM, 1 μM, human hepatoma Huh-7 HCV replicon cells, 3 days, luciferase readout

cyclophilin A, sequence (P62937 whole entry, species assumed): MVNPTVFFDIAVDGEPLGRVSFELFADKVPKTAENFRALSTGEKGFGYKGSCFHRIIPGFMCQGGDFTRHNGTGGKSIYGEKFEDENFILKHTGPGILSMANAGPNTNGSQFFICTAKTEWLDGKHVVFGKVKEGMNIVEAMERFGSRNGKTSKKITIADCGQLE

| Molecule | IC50 (cyclophilin A) [nM] | inhibition at 1 µM [3] [%] | other results |
| --- | --- | --- | --- |
| CC(C)[C@@H]1NC(=O)C=Cc2cc3cc(ccc3cn2)[C@@H](C)NC(=O)[C@@H]2CCCN(N2)C(=O)[C@H](C)NC1=O |  |  | ring closure, isolated yield ([1]; from C=Cc1cc2cc([C@@H](C)NC(=O)[C@@H]3CCCN(C(=O)[C@H](C)NC(=O)[C@@H](NC(=O)/C=C/C)C(C)C)N3)ccc2cn1, 20-membered ring, Hoveyda-Grubbs II (2 x 10 mol%), toluene, 3.86 mM): 1.2% |
| CC(C)[C@@H]1NC(=O)CC=Cc2cc3cc(ccc3cn2)[C@@H](C)NC(=O)[C@@H]2CCCN(N2)C(=O)[C@H](C)NC1=O |  |  | ring closure, isolated yield ([1]; from C=CCC(=O)N[C@H](C(=O)N[C@@H](C)C(=O)N1CCC[C@@H](C(=O)N[C@H](C)c2ccc3cnc(C=C)cc3c2)N1)C(C)C, 21-membered ring, Hoveyda-Grubbs II (2 x 10 mol%), toluene, 3.86 mM): 1% |
| CC(C)[C@@H]1NC(=O)[C@H](CC2CC2)C=Cc2ccc3ccc(nc3c2)[C@@H](C)OC(=O)[C@@H]2CCCN(N2)C(=O)[C@H](C)NC1=O |  |  | ring closure, yield after HPLC [2]: 1.3% |
| CC(=O)N1CCC2(/C=C/c3ccc4ccc(nc4c3)[C@@H](C)OC(=O)[C@@H]3CCCN(N3)C(=O)[C@H](C)NC(=O)[C@H](C(C)C)NC2=O)CC1 [Compound 135] | < 100 | 94 |  |
| CC(C)[C@@H]1NC(=O)C2(/C=C/c3ccc4ccc(nc4c3)[C@@H](C)OC(=O)[C@@H]3CCCN(N3)C(=O)[C@H](C)NC1=O)CCN(CC(F)(F)F)CC2 [Compound 136] | < 100 | 100 |  |
| COCc1cc2ccc3cc2nc1[C@@H](C)OC(=O)[C@@H]1CCCN(N1)C(=O)[C@H](C)NC(=O)[C@H](C(C)C)NC(=O)C(C)(C)/C=C/3 [Compound 137] | < 100 | 100 |  |
| CC(C)[C@@H]1NC(=O)C(C)(C)/C=C/c2ccc3c(Cl)cc(nc3c2)[C@@H](C)OC(=O)[C@@H]2CCCN(N2)C(=O)[C@H](C)NC1=O [Compound 138] | < 100 | 100 |  |
| CC1NC(=O)C(C(C)C)NC(=O)C(C)(C)/C=C/c2ccc3c(C#N)cc(nc3c2)C(C)OC(=O)C2CCCN(N2)C1=O (centres unmarked) [Compound 141] | < 100 | 99 |  |
| CC(C)[C@@H]1NC(=O)C(C)(C)/C=C/c2ccc3ccc(cc3c2)[C@@H](C)OC(=O)[C@@H]2CCCN(N2)C(=O)[C@H](C)NC1=O [Compound 142] | < 100 | 99 |  |
| CC(C)[C@@H]1NC(=O)C(C)(C)/C=C/c2cc3cc(ccc3cn2)[C@@H](C)NC(=O)[C@@H]2CCCN(N2)C(=O)[C@H](C)NC1=O [Compound 143] | < 100 | 31 |  |
| Cc1cc2nc3cc(ccc13)/C=C/C(C)(C)C(=O)N[C@@H](C(C)C)C(=O)N[C@@H](C)C(=O)N1CCC[C@H](N1)C(=O)O[C@@H]2C [Compound 144] | < 100 | 100 |  |
| CC(C)[C@@H]1NC(=O)C(C)(C)/C=C/c2ccc3c(=O)[nH]c(nc3c2)[C@@H](C)OC(=O)C2CCCN(N2)C(=O)[C@@H](C)NC1=O (some centres unmarked) [Compound 146] | < 100 | 24 |  |
| CC(C)[C@@H]1NC(=O)C(C)(C)/C=C/c2ccc3c(=O)n(C)c(nc3c2)[C@@H](C)OC(=O)C2CCCN(N2)C(=O)[C@@H](C)NC1=O (some centres unmarked) [Compound 147] | < 100 | 94 |  |
| Cc1cc2cc3nc(ccc13)[C@@H](C)OC(=O)C1CCCN(N1)C(=O)[C@@H](C)NC(=O)[C@H](C(C)C)NC(=O)C(C)(C)/C=C/2 (some centres unmarked) [Compound 148] | < 100 | 100 |  |
| CO[C@@H](C)[C@H]1/C=C/c2ccc3ccc(nc3c2)[C@@H](C)OC(=O)[C@@H]2CCCN(N2)C(=O)[C@@H](C)NC(=O)[C@H](C(C)C)NC1=O [Compound 149] | < 100 | 99 |  |
| CC(C)[C@@H]1NC(=O)C2(/C=C/c3ccc4ccc(nc4c3)[C@@H](C)OC(=O)[C@@H]3CCCN(N3)C(=O)[C@H](C)NC1=O)CC2 [Compound 152] | < 100 | 100 |  |
| CC(C)[C@@H]1NC(=O)C2(/C=C/c3ccc4ccc(nc4c3)[C@@H](C)OC(=O)[C@@H]3CCCN(N3)C(=O)[C@H](C)NC1=O)CCOCC2 [Compound 153] | < 100 | 100 |  |
| CC(C)[C@@H]1NC(=O)C2(/C=C/c3ccc4ccc(nc4c3)[C@@H](C)OC(=O)[C@@H]3CCCN(N3)C(=O)[C@H](C)NC1=O)CCCC2 [Compound 154] | < 100 | 100 |  |

| Molecule | IC50 (cyclophilin A) [nM] | inhibition at 1 µM [3] [%] | other results |
| --- | --- | --- | --- |
| CC(C)[C@@H]1NC(=O)[C@@]2(/C=C/c3ccc4ccc(nc4c3)[C@@H](C)OC(=O)[C@@H]3CCCN(N3)C(=O)[C@H](C)NC1=O)CCCN2C(=O)OC(C)(C)C [Compound 155] | < 100 | 100 |  |
| CC(C)[C@@H]1NC(=O)[C@@]2(/C=C/c3ccc4ccc(nc4c3)[C@@H](C)OC(=O)[C@@H]3CCCN(N3)C(=O)[C@H](C)NC1=O)CCCN2S(C)(=O)=O [Compound 156] | < 100 | 87 |  |
| CC(C)[C@@H]1NC(=O)[C@]2(/C=C/c3ccc4ccc(nc4c3)[C@@H](C)OC(=O)[C@@H]3CCCN(N3)C(=O)[C@H](C)NC1=O)CC[C@H](O)CC2 [Compound 158] | < 100 | 100 |  |
| CC(C)[C@@H]1NC(=O)[C@]2(/C=C/c3ccc4ccc(nc4c3)[C@@H](C)OC(=O)[C@@H]3CCCN(N3)C(=O)[C@H](C)NC1=O)CC[C@@H](O)CC2 [Compound 160] | < 100 | 98 |  |
| CC(C)[C@@H]1NC(=O)[C@]2(CCc3ccc4ccc(nc4c3)[C@@H](C)OC(=O)[C@@H]3CCCN(N3)C(=O)[C@H](C)NC1=O)CC[C@H](O)CC2 [Compound 161] | < 100 |  | Replicon 1a % inhibition at 1 μM [3]: 95% |
| Cc1cc2ccc(/C=C/C(C)(C)C(=O)N[C@H](C(=O)N[C@@H](C)C(=O)N3CCC[C@@H](C(=O)O)N3)C(C)C)cc2nc1[C@@H](C)O [Compound 162] | 1000 to 10000 | 0 |  |
| Cc1cc2ccc3cc2nc1[C@@H](C)OC(=O)[C@@H]1CCCN(N1)C(=O)[C@H](C)NC(=O)[C@H](C(C)C)NC(=O)C(C)(C)/C=C/3 [Compound 163] | < 100 | 100 |  |
| CC(C)C(=O)O[C@@H](C)[C@H]1/C=C/c2ccc3ccc(nc3c2)[C@@H](C)OC(=O)[C@@H]2CCCN(N2)C(=O)[C@H](C)NC(=O)[C@H](C(C)C)NC1=O [Compound 165] | < 100 | 100 |  |
| CC(C)[C@H](NC(=O)[C@H](/C=C/c1ccc2ccc([C@@H](C)O)nc2c1)[C@H](C)O)C(=O)N[C@@H](C)C(=O)N1CCC[C@@H](C(=O)O)N1 [Compound 166] | 1000 to 10000 | 0 |  |
| CC(C)[C@H](N)C(=O)O[C@@H](C)[C@H]1/C=C/c2ccc3ccc(nc3c2)[C@@H](C)OC(=O)[C@@H]2CCCN(N2)C(=O)[C@H](C)NC(=O)[C@H](C(C)C)NC1=O [Compound 167] | < 100 | 97 |  |
| CC(C)OC(=O)OCO[C@@H](C)[C@H]1/C=C/c2ccc3ccc(nc3c2)[C@@H](C)OC(=O)[C@@H]2CCCN(N2)C(=O)[C@H](C)NC(=O)[C@H](C(C)C)NC1=O [Compound 168] | < 100 | 100 |  |
| CC(C)[C@@H]1NC(=O)C(C)(C)/C=C/c2ccc3ccc(nc3c2F)[C@@H](C)OC(=O)[C@@H]2CCCN(N2)C(=O)[C@H](C)NC1=O [Compound 170] | < 100 | 100 |  |
| CC(=O)O[C@@H](C)[C@H]1/C=C/c2ccc3ccc(nc3c2)[C@@H](C)OC(=O)[C@@H]2CCCN(N2)C(=O)[C@H](C)NC(=O)[C@H](C(C)C)NC1=O [Compound 171] | < 100 | 99 |  |
| CCCC(=O)O[C@@H](C)[C@H]1/C=C/c2ccc3ccc(nc3c2)[C@@H](C)OC(=O)[C@@H]2CCCN(N2)C(=O)[C@H](C)NC(=O)[C@H](C(C)C)NC1=O [Compound 172] | < 100 | 100 |  |
| CC(C)[C@@H]1NC(=O)[C@]2(/C=C/c3ccc4ccc(nc4c3)[C@@H](C)OC(=O)[C@@H]3CCCN(N3)C(=O)[C@H](C)NC1=O)CC[C@@](C)(O)CC2 [Compound 173] | < 100 | 99 |  |
| CC(C)[C@@H]1NC(=O)[C@]2(/C=C/c3ccc4ccc(nc4c3)[C@@H](C)OC(=O)[C@@H]3CCCN(N3)C(=O)[C@H](C)NC1=O)CC[C@](C)(O)CC2 [Compound 174] | < 100 | 99 |  |
| Cc1cc2ccc3cc2nc1[C@@H](C)NC(=O)[C@@H]1CCCN(N1)C(=O)[C@H](C)NC(=O)[C@H](C(C)C)NC(=O)C(C)(C)/C=C/3 [Compound 175] | < 100 | 85 |  |
| (E)-pent-3-enoyl-hPhe-Ala-Piz-O-(R)-1-(3-vinyl-isoquinolin-6-yl)ethyl ester? |  |  | ring closure, isolated yield ([1]; the molecule shown is the open-chain precursor, 21-membered ring, Hoveyda-Grubbs II (portions), chlorobenzene, 4.8 mM, 110.0 °C): 12% |

Reference: US9512175B2, “Macrocyclic inhibitors of flaviviridae viruses” (Gilead Sciences, Inc., priority 2012, dated 2016)
